Experiments:
U2OS = assay: MTS antiproliferative assay U2OS; assay type: cell-based; conditions: Homo sapiens, 72 h of incubation
Text: (§1) The cell lines used were acquired from the American Type Culture Collection (ATCC), CCRF-CEM (T lymphoblastic leukemia), K562 ([…]), U2OS (osteosarcoma), HCT116 (colon carcinoma), A549 (lung adenocarcinoma) and HCT116p53−/− (HCT116 cell line mutated in p53) Horizon Discovery Ltd., (Waterbeach, Cambridge, United Kingdom).
(§2) In our laboratory, IMTM, we generated the daunorubicin-resistant subline of CCRF-CEM cells (CEM-DNR bulk) and paclitaxel-resistant subline K562-TAX, as described previously. […] Both ABC transporters are involved in drug resistance. As a control, human fibroblasts MRC-5 and BJ cell lines were used. […] Adherent cells were passaged using PBS containing 0.25% trypsin plus 0.01% EDTA (ethylenediamine tetraacetic acid) every 2–3 days.
(§3) The antiproliferative activity of compounds was determined using a standard 3-(4,5-dimethylthiazol-2yl)-5-(3-carboxymethoxyphenyl)-2-(4-sulfophenyl)-2H-tetrazolium (MTS) reduction assay on a robotic high throughput screening platform (HighResBio, Boston, MA, USA) following treatment of cells for 3–7 days. The IC50 values were calculated from the appropriate dose–response curves with Dotmatics software (San Diego, CA, USA).

BJ = assay: MTS assay on non-malignant BJ; assay type: cell-based; conditions: noncancerous human cell line
Experimental: as §2, §3

A549 = assay: MTS antiproliferative assay A549; assay type: cell-based, human; conditions: 72 h of incubation
Text: as §1, §2, §3

HCT-116 = assay: MTS antiproliferative assay HCT116; assay type: cell-based; conditions: Homo sapiens, 72 h of incubation
Text: as §1, §2, §3

MRC-5 = assay: MTS assay on non-malignant MRC-5; assay type: cell-based; conditions: MRC5; noncancerous human cell line
Experimental: as §2, §3

[1] = tested on: epimastigotes of Trypanosoma cruzi strain MHOM/VE/92/YBM; assay: MTT viability of T. cruzi epimastigotes; assay type: cell-based; conditions: Trypanosoma cruzi, 72 h, epimastigotes
HCT116p53−/− = assay: MTS antiproliferative assay HCT116p53-/-; assay type: cell-based; conditions: Homo sapiens; 72 h of incubation
Text: as §1, §2, §3

K562-TAX = assay: MTS antiproliferative assay K562-TAX; assay type: cell-based, human; conditions: 72 h of incubation, paclitaxel-resistant
Text: as §1, §2, §3

[2] = tested on: promastigotes of Leishmania (V.) braziliensis strain MHOM/CO/87/UA301; assay: MTT viability of L. braziliensis promastigotes; assay type: cell-based;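 note: promastigote proliferation in 96-well plates, MTT reduction read at 570 nm, EC50 derived from growth curves, cytotoxicity CC50 likewise by MTT in BMDM and VERO cells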
Experimental: Promastigotes of Leishmania (V.) braziliensis strain MHOM/CO/87/UA301 were isolated from footpad lesions in Balb/C mice previously infected. In the process of maintenance and differentiation of the parasites, the LTI medium (tryptose 15 g/L, yeast extract 5 g/L, liver extract 2 g/L, hemin-NaOH 0.02 g/L, glucose 4 g/L, NaCl 9 g/L, KCl 0.4 g/L Na2HPO4, 7.5 g/L at pH 7.4) supplemented with 10% fetal calf serum and maintained at 29 °C was used.
Briefly, 96-well plates were used, where 2 × 10^6 parasites/mL were seeded. A concentration of 50 μM was used for each compound and an incubation time of 96 h at 29 °C. 3-(4,5-dimethylthiazol-2-yl)-2,5-diphenyl tetrazolium bromide (MTT) 1 μg/mL was added and incubated in darkness for 4 h, acidic isopropanol (4N) was added and the plate was read at 570 nm in a spectrophotometer Synergy HT (Biotek). Miltefosine was used as a reference drug. The EC50 calculation of the selected compound was performed using growth curves. Direct counting was used to monitor the proliferation of parasites, three independent experiments were performed for each concentration of the compounds evaluated. The in vitro evaluations of compounds toxicity by MTT in VERO and BMDM cells follow a methodology described above with some modifications [60].

CEM-DNR = assay: MTS antiproliferative assay CEM-DNR; assay type: cell-based; conditions: Homo sapiens, 72 h of incubation, daunorubicin-resistant
Text: as §1, §2, §3

CCRF-CEM = assay: MTS antiproliferative assay CCRF-CEM; assay type: cell-based; conditions: Homo sapiens, 72 h of incubation
Text: as §1, §2, §3

K562 = assay: MTS antiproliferative assay K562; assay type: cell-based, human; conditions: for IC50: 72 h of incubation; for times higher cytotoxicity against K562 than K562-TAX: ratio of IC50 values
Text: as §1, §2, §3

A549 cell line = assay: Annexin V-FITC/PI flow cytometry apoptosis assay A549; assay type: cell-based, human; conditions: 24 h
Experimental: (§4) Cell death was assessed after 24 h incubation with compounds 18 and 22. Apoptosis was analyzed by flow cytometry using annexin V-FITC and propidium iodide (PI). Early apoptosis was defined by annexin V-FITC expression and, necrosis by PI expression, late apoptosis by coexpression of annexin V/PI. Doxorubicin and quercetin were used as positive controls. The results of a typical flow cytometry analysis of both compounds are illustrated in Figure 2 and Figure 3. An increase in early apoptosis and late apoptosis was observed; necrosis was less predominant. The results are summarized in Tables S1 and S2 (Supplementary Materials). The expression of annexin V was different depending on the compound used. K562, A549 cell lines were treated as described by the manufacturer (Santa Cruz Biotechnology), washed, and resuspended in annexin V binding buffer (0.01 M HEPES, 0.14 M NaCl, and 2.5 mM CaCl2) with the subsequent incubation of annexinV-FITC and then PI. An Epics XL cytometer (Beckman Coulter, Indianapolis, IN, USA) was used for the analysis. Untreated cells were the negative controls, and doxorubicin (Dox) (1 μM), and quercetin (QC) (50 μM) were the positive controls. Early apoptosis refers to annexin V expression, late apoptosis, the coexpression of annexin V and PI, and necrosis the sole expression of PI. […] The experiments were performed as described before. To avoid the unwanted effects of DMSO, the concentrations of the compounds were never higher than 100 μM.

K562 cell line = assay: Annexin V-FITC/PI flow cytometry apoptosis assay K562; assay type: cell-based, human; conditions: 24 h
Experimental: as §4

SMILES	IC50 (U2OS)	IC50 (BJ)	IC50 (A549; Homo sapiens, A549, 72 h)	IC50 (HCT-116)	IC50 (MRC-5)	EC50 [1]	IC50 (HCT116p53−/−)	IC50 (K562-TAX; Homo sapiens, K562-Tax, 72 h)	EC50 ([2]; 72 h, promastigotes)	IC50 (CEM-DNR)	IC50 (CCRF-CEM)	IC50 (K562; Homo sapiens, K562, 72 h)	melting point	further results
O=C1/C(=C/c2cccnc2Oc2ccc(F)cc2)CCc2ccccc21 [Compound 12, (E)-2-{[2-(4-Fluorophenoxy)pyridin-3-yl]methylene}-3,4-dihydronaphthalen-1(2H)-one]	23.2 ± 1.9 µM	> 50 µM	28.1 ± 4.86 µM	26.4 ± 1.58 µM	> 50 µM	> 100 µM	26.9 ± 3.49 µM	32.9 ± 3.19 µM	> 100 µM	35.6 ± 4.42 µM	6.7 ± 0.98 µM	22.4 ± 2.3 µM		
COc1cccc2c1CC/C(=C\c1cccnc1Oc1ccc(F)cc1)C2=O [Compound 13, (E)-2-{[2-(4-Fluorophenoxy)pyridin-3-yl]methylene}-3,4-dihydro-5-methoxynaphthalen-1(2H)-one]	21 ± 2.21 µM	> 50 µM	28.4 ± 2.14 µM	27.2 ± 2.44 µM	> 50 µM	> 100 µM	23.5 ± 1.5 µM	39.3 ± 5.4 µM	> 100 µM	37.3 ± 3.13 µM	6.07 ± 0.59 µM	23.4 ± 2.31 µM	154 to 156 °C	
COc1ccc2c(c1)CC/C(=C\c1cccnc1Oc1ccc(F)cc1)C2=O [Compound 14, (E)-2-{[2-(4-Fluorophenoxy)pyridin-3-yl]methylene}-3,4-dihydro-6-methoxynaphthalen-1(2H)-one]	> 50 µM	> 50 µM	43.6 ± 4.12 µM	> 50 µM	> 50 µM	> 100 µM	> 50 µM	> 39.2 µM	> 100 µM	41.3 ± 5.67 µM	20.1 ± 2.43 µM	5.74 ± 3.2 µM	152 to 154 °C	IC50 (K562-TAX): 39.2 ± 9.37 µM; times higher cytotoxicity against K562 than K562-TAX (K562): 6.8 times
COc1ccc2c(c1)C(=O)/C(=C/c1cccnc1Oc1ccc(F)cc1)CC2 [Compound 15, (E)-2-{[2-(4-Fluorophenoxy)pyridin-3-yl]methylene}-3,4-dihydro-7-methoxynaphthalen-1(2H)-one]	26.3 ± 4.61 µM	> 50 µM	29.1 ± 5 µM	30.5 ± 2.34 µM	> 50 µM	> 100 µM	23.9 ± 2.5 µM	19.7 ± 3.78 µM	> 100 µM	23.1 ± 4.38 µM	9.13 ± 1.38 µM	27.7 ± 2.49 µM	150 to 152 °C	
O=C1/C(=C/c2cccnc2Oc2ccc(Br)cc2)CCc2ccccc21 [Compound 16, (E)-2-{[2-(4-Bromophenoxy)pyridin-3-yl]methylene}-3,4-dihydronaphthalen-1(2H)-one]	38 ± 4.47 µM	> 50 µM	39.7 ± 1.89 µM	29.9 ± 4.59 µM	> 50 µM	> 100 µM	31.5 ± 62.7 µM	25.6 ± 5.37 µM	> 100 µM	34.3 ± 3.61 µM	8.7 ± 2.19 µM	23.9 ± 2.28 µM	138 to 140 °C	
COc1cccc2c1CC/C(=C\c1cccnc1Oc1ccc(Br)cc1)C2=O [Compound 17, (E)-2-{[2-(4-Bromophenoxy)pyridin-3-yl]methylene}-3,4-dihydro-5-methoxynaphthalen-1(2H)-one]	> 50 µM	> 50 µM	> 50 µM	> 50 µM	> 50 µM	> 100 µM	> 50 µM	31.4 ± 6.59 µM	> 100 µM	31.7 ± 5.86 µM	12.9 ± 2.07 µM	32 ± 3.72 µM	158 to 160 °C	
COc1ccc2c(c1)CC/C(=C\c1cccnc1Oc1ccc(Br)cc1)C2=O [Compound 18, (E)-2-{[2-(4-Bromophenoxy)pyridin-3-yl]methylene}-3,4-dihydro-6-methoxynaphthalen-1(2H)-one]	7.27 ± 0.68 µM	> 50 µM	9.64 to 9.74 µM	> 50 µM	> 50 µM	> 100 µM	> 50 µM	17.6 ± 7.09 µM	> 100 µM	25.7 ± 5.71 µM	5.97 ± 0.67 µM	3.91 to 4.33 µM		IC50 (A549): 9.64 ± 1.71 µM; AV+/IP+ (late apoptosis) (A549 cell line; A549, 10 µM): 3.28%; AV+/IP- (early apoptosis) (A549 cell line; A549, 10 µM): 11.10%; AV-/IP+ (necrosis) (A549 cell line; A549, 10 µM): 3.06%; AV+/IP+ (late apoptosis) (A549 cell line; A549, 25 µM): 21.10%; AV+/IP- (early apoptosis) (A549 cell line; A549, 25 µM): 40.10%; AV-/IP+ (necrosis) (A549 cell line; A549, 25 µM): 3.12%; IC50 (K562): 4.33 ± 0.19 µM; times higher cytotoxicity against K562 than K562-TAX (K562): 4.1 times; AV+/IP+ (late apoptosis) (K562 cell line; K562, 5 µM): 2.84%; AV+/IP- (early apoptosis) (K562 cell line; K562, 5 µM): 22.70%; AV-/IP+ (necrosis) (K562 cell line; K562, 5 µM): 0.89%; AV+/IP+ (late apoptosis) (K562 cell line; K562, 10 µM): 89.50%; AV+/IP- (early apoptosis) (K562 cell line; K562, 10 µM): 8.69%; AV-/IP+ (necrosis) (K562 cell line; K562, 10 µM): 1.12%; annexin V-FITC expression (K562 cell line; K562, 10 µM): higher than 50%
COc1ccc2c(c1)C(=O)/C(=C/c1cccnc1Oc1ccc(Br)cc1)CC2 [Compound 19, (E)-2-{[2-(4-Bromophenoxy)pyridin-3-yl]methylene}-3,4-dihydro-7-methoxynaphthalen-1(2H)-one]	> 50 µM	> 50 µM	> 50 µM	> 50 µM	> 50 µM	> 100 µM	> 50 µM	4.17 ± 2.93 µM	≤ 60 µM	20 ± 3.99 µM	12.9 ± 2.43 µM	43 ± 5.1 µM	144 to 146 °C	EC50 ([2]; promastigotes, 72 h): 44.6 ± 1.15 µM
COc1cccc2c1C(=O)c1c(O)c3c(c(O)c1C2=O)C[C@@](O)(C(=O)CO)C[C@@H]3O[C@H]1C[C@H](N)[C@H](O)[C@H](C)O1 [Dox, doxorubicin, reference compound]														AV+/IP+ (late apoptosis) (A549 cell line; A549, 1 µM): 33.50%; AV+/IP- (early apoptosis) (A549 cell line; A549, 1 µM): 8.33%; AV-/IP+ (necrosis) (A549 cell line; A549, 1 µM): 29.30%; AV+/IP+ (late apoptosis) (K562 cell line; K562, 1 µM): 29.80%; AV+/IP- (early apoptosis) (K562 cell line; K562, 1 µM): 29.40%; AV-/IP+ (necrosis) (K562 cell line; K562, 1 µM): 19.20%
O=c1c(O)c(-c2ccc(O)c(O)c2)oc2cc(O)cc(O)c12 [QC, quercetin, reference compound]														AV+/IP+ (late apoptosis) (A549 cell line; A549, 50 µM): 21.70%; AV+/IP- (early apoptosis) (A549 cell line; A549, 50 µM): 26.10%; AV-/IP+ (necrosis) (A549 cell line; A549, 50 µM): 5.60%; AV+/IP+ (late apoptosis) (K562 cell line; K562, 50 µM): 6.25%; AV+/IP- (early apoptosis) (K562 cell line; K562, 50 µM): 34.30%; AV-/IP+ (necrosis) (K562 cell line; K562, 50 µM): 1.57%
